Activity data for one compound are collected here from ChEMBL document CHEMBL3045177, “The effect of ascorbic acid supplementation on brain oxidative events in experimental diabetes” (Med Chem Res, 2010).

For data set [1], the system named is Rattus norvegicus. As to the kind of experiment: Neurotoxicity in Rattus norvegicus Wistar albino (rat) assessed as increase in brain total nitric oxide level measured per gram of tissue at 20 mg/kg, administered as intragastrically after 21 days by Griess assay (reference value: 144.8 +/- 16.3 umol). It is filed as toxicity, organism-based. To be noted: in vivo, po, 504 h. The arrangement: dose 20 mg/kg, route intragastric. (In general: Griess reagent forms a coloured azo dye with nitrite.)

Data set [2] has as its system Rattus norvegicus. As to the kind of experiment: Neurotoxicity in Rattus norvegicus Wistar albino (rat) assessed as increase in brain ascorbic acid level measured per gram of tissue at 20 mg/kg, administered as intragastrically after 21 days by spectrphotometric analysis (reference value: 3.7 +/- 0.7 mg). The arrangement: dose 20 mg/kg, route intragastric. Type of data set: toxicity, organism-based. The note with it: in vivo, po, 504 h.

Data set [3] relates to Rattus norvegicus. Nature of the data set: Neurotoxicity in Rattus norvegicus Wistar albino (rat) assessed as increase in brain glutathione level measured per gram of tissue at 20 mg/kg, administered as intragastrically after 21 days by Ellman's method (reference value: 3.5 +/- 1.0 umol). Type of data set: toxicity, organism-based. Also on record: dose 20 mg/kg, route intragastric. To be noted: in vivo, po, 504 h. Background: In Ellman's method for cholinesterases, released thiocholine reacts with DTNB.

Data set [4] relates to Rattus norvegicus. As to the kind of experiment: Neurotoxicity in Rattus norvegicus Wistar albino (rat) assessed as increase in brain malondialdehyde level measured per gram of tissue at 20 mg/kg, administered as intragastrically after 21 days by TBARS assay (reference value: 233.9 +/- 48.6 nmol). The arrangement: dose 20 mg/kg, route intragastric. Type of data set: toxicity, organism-based. To be noted: in vivo, po, 504 h.

For data set [5], the system named is Rattus norvegicus. Nature of the data set: Neuroprotective activity in streptozotocin-induced Rattus norvegicus Wistar albino (rat) diabetic model assessed as increase in brain total nitric oxide level measured per gram of tissue at 20 mg/kg, administered as intragastrically after 21 days by Griess assay (reference value: 100.6 +/- 10.7 umol). Type of data set: functional. To be noted: route intragastric.

Data set [6] relates to Rattus norvegicus. As to the kind of experiment: Neuroprotective activity in streptozotocin-induced Rattus norvegicus Wistar albino (rat) diabetic model assessed as increase in brain ascorbic acid level measured per gram of tissue at 20 mg/kg, administered as intragastrically after 21 days by spectrphotometric analysis (reference value: 3.7 +/- 0.4 mg). It is filed as functional. To be noted: route intragastric.

The test system of data set [7] is Rattus norvegicus. Nature of the data set: Neuroprotective activity in streptozotocin-induced Rattus norvegicus Wistar albino (rat) diabetic model assessed as increase in brain glutathione level measured per gram of tissue at 20 mg/kg, administered as intragastrically after 21 days by Ellman's method (reference value: 3 +/- 0.5 umol). Type of data set: functional. The note with it: route intragastric.

The subject of data set [8] is Rattus norvegicus. Nature of the data set: Neuroprotective activity in streptozotocin-induced Rattus norvegicus Wistar albino (rat) diabetic model assessed as decrease in brain malondialdehyde level measured per gram of tissue at 20 mg/kg, administered as intragastrically after 21 days by TBARS assay (reference value: 447 +/- 61.9 nmol). To be noted: route intragastric. It is filed as functional.

Structures are written as SMILES.

As to `O=C1O[C@H]([C@@H](O)CO)C(O)=C1O` [ASCORBIC ACID], the Activity in the data set with Rattus norvegicus [1] came to 115.2 µmol; with Rattus norvegicus [2], 5.2 mg; in the data set with Rattus norvegicus [3], 5.4 µmol; with Rattus norvegicus [4], 249.2 nmol; with Rattus norvegicus [5], 146.1 µmol; with Rattus norvegicus [6], 4.26 mg. The Activity turned out to be 3.1 µmol with Rattus norvegicus [7] and 204.2 nmol with Rattus norvegicus [8].
